Source: article PMC3591457, “Biodistribution and Elimination Study of Fluorine-18 Labeled N^ε-Carboxymethyl-Lysine following Intragastric and Intravenous Administration” (PLoS ONE, 2013)

Experiments:
[1] = ^18F-CML in vivo stability in mice (radio-HPLC of plasma and urine); parameters: species or system ICR mice
Procedure: The in vivo stability of the ^18F-CML in mice was determined using arterial blood and urine samples. Male ICR mice (n = 3) were anaesthetised with 2% vaporized isoflurane and injected with a dose of approximately 3.7 MBq of ^18F-CML in 250 µL of normal saline via the tail vein. […] Blood samples were removed immediately and centrifuged at 12,000 rpm for 2 min at 4°C to separate the plasma. The urinary bladder was carefully excised, and the urine was collected from the bladder. The plasma (30 µL) and an aliquot of the urine sample (20 µL) was injected into an HPLC column to analyze the in vivo stability of ^18F-CML in the mice.
The HPLC analysis method was based on using trichloroacetic acid to precipitation plasma proteins, which were subsequently separated by reversed-phase column liquid chromatography using a 150 mm×4.6 mm C18 column with a mobile phase of […] acetonitrile and pure water (55%/45%) and detected based on UV absorbance at 254 nm. Radioactivity signal was detected by a radiochromatography detector (PTW, Freiburg, Germany). The ratio of unchanged ^18F-CML to total radioactivity on the HPLC chromatogram was calculated and expressed as a percentage.

[2] = system: RAW264.7 cells; experiment: Cell uptake of ^18F-CML and native CML in RAW264.7 cells; format: cell-based; details: n=3, P<0.01, blocking with non-radioactive CML
Procedure: To compare the different bioactivities of CML and ^18F-CML, two cell lines were evaluated for their capacity to take up native CML and the fluorobenzoylated derivative ^18F-CML. RAW264.7 macrophages and HepG2 liver cells were cultured in DMEM/LOWGLUCOSE, supplemented with 10% fetal bovine serum (FBS), 4.0 mmol/L L-glutamine, 110 mg/L sodium pyruvate, 100 U/mL penicillin, and 100 mg/L streptomycin at 37°C and 5% CO2.
For ^18F-CML cell uptake studies, RAW264.7 cells and HepG2 cells were seeded into 24-well plates at a density of 4×10^5 cells per well. Radio-tracer ^18F-CML (0.5 µCi/well, 3 µmol/mL) was incubated in a 37°C water bath for 15, 30, 60, and 120 min. At each time point the cells were washed 3 times with phosphate-buffered saline (PBS). The supernatant, washing-up liquid (unbound activity) and the pellet (cell-bound activity) were transferred to new tubes. Triplicates of the counting tubes containing supernatant and cell pellet were counted individually using a gamma counter for 1 min. For the blocking experiment, the uptake was carried out in the presence of the non-radioactive CML(10 µmol/mL) and processed similarly as described above. The uptake (%) of radio-tracer into the cell was determined using a gamma counter according to the following equation: [drawing 1]
For CML cell uptake ratio studies, unaltered CML (10 µmol/mL) was added to RAW264.7 and HepG2 cell pellets individually. The total proteins of each cell line were initially extracted from the lysates of 4×10^5 cells. […] The supernatants were purified and detected usingby the method described by Drusch et al., which uses an RP-HPLC method with an ortho-phthaldialdehyde (OPA)-derivatisation and fluorescence detection suited for automation. The HPLC analysis method used a 250 mm×4.6 mm C18 column (GROM-SIL 100 ODS-0 AB, Herrenberg, Germany) and detected the fluorescence excitation at 340 nm and emission at 455 nm. The peak identification of CML was confirmed by the retention time and standard addition and was quantified using an external standard. The amount of CML was calculated and expressed as a percentage.

[3] = Biodistribution after intragastric administration; format: in vivo, ICR mice; details: for Uptake in bladder, percentage of injected dose per whole tissue / Uptake in brain, percentage of injected dose per whole tissue / Uptake in heart, percentage of injected dose per whole tissue / Uptake in intestines, percentage of injected dose per whole tissue / Uptake in kidneys, percentage of injected dose per whole tissue / Uptake in liver, percentage of injected dose per whole tissue / Uptake in lungs, percentage of injected dose per whole tissue / Uptake in muscles, percentage of injected dose per whole tissue / Uptake in pancreas, percentage of injected dose per whole tissue / Uptake in stomach, percentage of injected dose per whole tissue: intragastric administration, n=3, mean ± SD
Procedure: The biodistribution of ^18F-CML was studied in eighteen young male ICR mice with a weight range of 18–20 g. Nine mice were used for intravenous administration and the other nine mice were used for intragastric administration.
For intravenous administration, ^18F-CML was injected into a lateral tail vein of the animals under light ether anesthesia. The injection volume (2–3 MBq; radiochemical purity 96%) was 0.1 mL. For intragastric administration, 1.5 MBq of ^18F-labeled CML was given via gastrointestinal tract tract.
The mice were sacrificed at 5, 60, and 120 min after administration of ^18F-CML (three mice at each time point). The animals were sacrificed by heart puncture under ether anaesthesia. The tissues and organs of interest were isolated and counted in a well-type γ counter. Additionally, 200 µL of blood was taken from the carotid artery. The distributions of ^18F-CML in different tissues and organs were calculated and expressed as the percent uptake of the injection dose per whole tissue (% ID).

## O=C(O)CNCCCCC(NC(=O)c1ccc([18F])cc1)C(=O)O (stereo not drawn) [^18F-CML]
[1]; 40 min after injection
  Metabolic products in the urine (radio HPLC): No metabolic products were observed
[1]; 60 min after tail vein injection, RP-HPLC
  Radioactivity in an unchanged form in the plasma and urine (in vivo stability): more than 98%
[2]
  Uptake of radioactivity in untreated cells relative to unlabelled CML-treated (blocked) cells: 1.8 fold
[3]; 5 min
  Uptake in bladder, percentage of injected dose per whole tissue: 5.20±1.68 %ID
  Uptake in brain, percentage of injected dose per whole tissue: 1.04±0.02 %ID
  Uptake in heart, percentage of injected dose per whole tissue: 1.05±0.25 %ID
  Uptake in intestines, percentage of injected dose per whole tissue: 9.91±1.36 %ID
  Uptake in kidneys, percentage of injected dose per whole tissue: 2.20±0.95 %ID
  Uptake in liver, percentage of injected dose per whole tissue: 1.17±0.45 %ID
  Uptake in lungs, percentage of injected dose per whole tissue: 0.35±0.19 %ID
  Uptake in muscles, percentage of injected dose per whole tissue: 1.76±0.53 %ID
  Uptake in pancreas, percentage of injected dose per whole tissue: 0.2±0.01 %ID
  Uptake in stomach, percentage of injected dose per whole tissue: 76.85±7.01 %ID
[3]; 60 min
  Uptake in bladder, percentage of injected dose per whole tissue: 12.21±1.62 %ID
  Uptake in brain, percentage of injected dose per whole tissue: 0.31±0.03 %ID
  Uptake in heart, percentage of injected dose per whole tissue: 0.75±0.52 %ID
  Uptake in intestines, percentage of injected dose per whole tissue: 52.29±8.71 %ID
  Uptake in kidneys, percentage of injected dose per whole tissue: 3.31±1.91 %ID
  Uptake in liver, percentage of injected dose per whole tissue: 1.0±0.12 %ID
  Uptake in lungs, percentage of injected dose per whole tissue: 0.51±0.11 %ID
  Uptake in muscles, percentage of injected dose per whole tissue: 2.16±1.82 %ID
  Uptake in pancreas, percentage of injected dose per whole tissue: 0.32±0.02 %ID
  Uptake in stomach, percentage of injected dose per whole tissue: 29.73±3.91 %ID
[3]; 120 min
  Uptake in bladder, percentage of injected dose per whole tissue: 29.59±3.7 %ID
  Uptake in brain, percentage of injected dose per whole tissue: 0.02±0.01 %ID
  Uptake in heart, percentage of injected dose per whole tissue: 0.29±0.59 %ID
  Uptake in intestines, percentage of injected dose per whole tissue: 48.32±5.2 %ID
  Uptake in kidneys, percentage of injected dose per whole tissue: 2.1±0.29 %ID
  Uptake in liver, percentage of injected dose per whole tissue: 0.29±0.05 %ID
  Uptake in lungs, percentage of injected dose per whole tissue: 0.23±0.05 %ID
  Uptake in muscles, percentage of injected dose per whole tissue: 1.11±1.78 %ID
  Uptake in pancreas, percentage of injected dose per whole tissue: 0.05±0.00 %ID
  Uptake in stomach, percentage of injected dose per whole tissue: 17.87±2.1 %ID
[3]; intragastric, 60 min
  Accumulation of radioactivity in the gastrointestinal tract: approximately 82 % ID
  Fraction excreted in the urine: 12 % ID
[3]; intragastric, 120 min, percentage of wet tissue
  Blood uptake: 0.95±0.09 % ID
